Laboratory results taken from patent US7074768B2, “Modified protein kinase A-specific oligonucleotides and methods of their use” (Idera Pharmaceuticals, Inc., priority 1995, dated 2006).

How the values were obtained:
[1] = system: ZR75-1 human breast cancer cells; assay: Soft agar growth of ZR75-1 cells; type: cell-based
Protocol: (§1) Cells (10^4 cells/well) were seeded in 0.5 ml of 0.3% Difco Noble agar (Difco, Detroit, Mich.) supplemented with complete culture medium. This suspension was layered over 0.5 ml of 0.8% agar-medium base layer in 24 multiwell cluster dishes (Becton Dickinson) and treated with various concentrations of docetaxel (day 0). […] Twelve days after the last treatment, cells were stained with nitroblue tetrazolium (Sigma) and colonies larger than 0.05 mm were counted.
as §1
(§2) Soft agar growth. Cells (10^4 cells/well) were seeded in 0.5 ml of 0.3% Difco Noble agar (Difco, Detroit, Mich.) supplemented with complete culture medium. This suspension was layered over 0.5 ml of 0.8% agar-medium base layer in 24 multiwell cluster dishes (Becton Dickinson) and treated with various concentrations of docetaxel (day 0). The HYB 165 was added after 12 hrs (day 1) and on day 3. Twelve days after the last treatment, cells were stained with nitroblue tetrazolium (Sigma) and colonies larger than 0.05 mm were counted.
as §2, with “508” for “165”, “hrs” for “hrs (day 1)”, “2, 3 and 4. After 12” for “3. Twelve”, “days” for “days after”, “the” for “the last treatment,”
Soft agar growth. Cells (10^4 cells/well) were seeded in 0.5 ml of 0.3% Difco Noble agar (Difco, Detroit, Mich.) supplemented with complete culture medium. […] After 12 days the cells were stained with nitroblue tetrazolium (Sigma) and colonies larger than 0.05 mm were counted.
as §2, with “of” for “of docetaxel (day 0). The”, “or HYB295 every 48 hours for three times. After” for “was added after”, “12” for “12 hrs (day 1) and on day 3. Twelve”, “days” for “days after”, “the” for “the last treatment,”, “(Sigma, St. Louis, Mo.)” for “(Sigma)”
as §2, with “of” for “of docetaxel (day 0). The”, “or HYB508 every 48 hours for three times. After” for “was added after”, “12” for “12 hrs (day 1) and on day 3. Twelve”, “days” for “days after”, “the” for “the last treatment,”, “(Sigma, St. Louis, Mo.)” for “(Sigma)”

[2] = system: GEO colon cancer xenografts; assay: GEO colon cancer xenografts in nude mice (tumor growth, survival); type: in vivo; conditions: single agent
Protocol: We investigated the antitumor activity of HYB 165 (AS RIα) in nude mice bearing GEO colon cancer xenografts, using either the intraperitoneal (i.p.) or the oral route of administration. When established GEO tumors of approximately […] were detectable, groups of 10 mice were treated i.p. with either HYB 165 or a control modified backbone oligonucleotide with a scrambled sequence, at 5 or 10 mg/kg/dose, daily on days 7 to 11 and 14 to 18. […] The control oligonucleotide produced no inhibition at 10 mg/kg/dose.
Following oral administration, modified backbone oligonucleotides (MBOs) are absorbed in the upper and lower part of the GI tract and distributed to major organs (S. Agrawal and R. Zhang, In: Antisense Research and Application, S. T. Crooke, ed.), Handbook of Experimental Pharmacology, Springer, Berlin, p. 525–543 (1998). Therefore, HYB 165 and the control oligonucleotide were administered to GEO tumor-bearing mice as described above, except that HYB 165 and the control oligonucleotide were administered orally.
On day 7 after tumor cell injection, one group of 10 mice was treated with taxol (20 mg/kg/dose, i.p.), and the treatment was repeated every 2 weeks (on day 21 and day 35) for a total of three cycles. Two other groups of mice were treated with either HYB 165 (AS RIα) or a control MBO with a scrambled sequence (10 mg/kg/dose, p.o.), daily for five days (days 8–12). Treatment was repeated every 2 weeks (days 22–26 and days 36–40) for a total of three cycles. Two more groups of mice were treated with taxol and either HYB 165 or the control MBO, administering the taxol (20 mg/kg/dose, i.p.) on day 7, followed by oral administration of either HYB 165 or the control MBO daily for five days (days 8–12). The sequential treatment was repeated with the same schedule every 2 weeks for a total of three cycles.

[3] = system: GEO human colon cancer cells; assay: Soft agar growth of GEO cells; type: cell-based
Protocol: as §2, with “Cells” for “Soft agar growth. Cells”, “paclitaxel” for “docetaxel”, “2, 3 and 4. 12” for “3. Twelve”

[4] = system: AR; assay: Histochemical analysis of GEO tumors: AR; type: in vivo; conditions: single agent, after two cycles
From the text: (§3) Tumor specimens from the different groups of mice were examined by histochemical analysis at different time points to evaluate the expression of a variety of biological parameters.
(§4) TGFα and AR are growth factors which bind to EGFR and control human colon cancer growth through autocrine and paracrine mechanisms (F. Ciardiello and G. Tortora, Clin. Cancer Res. 4:821–828 (1998); D. S. Salomon, Crit. Rev. Oncol. Hematol. 19:183–232 (1995)).

[5] = system: Factor VIII related antigen; assay: Tumor-induced neovascularization (anti-Factor VIII related antigen immunohistochemistry); type: in vivo; conditions: single agent, vs untreated mice or scramble MBO
From the text: In recent years, the critical role of tumor-induced neovascularization in neoplastic development, progression and metastasis has been elucidated (J. I. Fokman, In: J. Mendelsohn et al., eds., The Molecular Basis of Cancer, pp 206–232, Philadelphia: W B Saunders (1995) . A reliable histologic estimate of novel blood vessels on tumor specimens is the microvessel count (MVC) in the most intense areas of neovascularization. In the present study, tumor-induced neovascularization was quantified by immunohistochemistry using an anti-Factor VIII related antigen monoclonal antibody (N. Weidner, Breast Cancer Res. Treat., 36:169–180 (1995)).

[6] = system: TGFα; assay: Histochemical analysis of GEO tumors: TGFα; type: in vivo; conditions: single agent, after two cycles
From the text: as §3, §4

[7] = system: p27; assay: Histochemical analysis of GEO tumors: p27; type: in vivo; conditions: single agent
From the text: Tumor specimens from the different groups of mice were examined by histochemical analysis at different time points to evaluate the expression of a variety of biological parameters. […] No other treatment was able to affect RIα expression.
Loda et al. (Nature Medicine 3:231–234 (1997)) discloses that the cyclin-dependent kinase (CDK) inhibitor p27 is […] related to cell entry into S phase and proliferation and that reduction of its expression correlates with poor prognosis in colon cancer patients.

[8] = system: LS-174T human colon carcinoma cells; assay: LS-174T tumor growth and antisense treatment; type: in vivo, athymic mice; conditions: single s.c. dose 1 mg per mouse, FIG. 1
Protocol: LS-174T human colon carcinoma cells (1×10^6 cells) were inoculated subcutaneously (s.c.) into the left flank of athymic mice. A single dose of RIα antisense hybrid (Oligo 165, SEQ ID NO:4), inverted hybrid (Oligo 166, SEQ ID NO:6), or antisense (Oligo 164, SEQ ID NO:1) oligonucleotides or control oligonucleotide (Oligo 169, SEQ ID NO:7); Oligo 168 (SEQ ID NO:5); Oligo 188, (SEQ ID NO:3) as shown in Table 1 (1 mg per 0.1 ml saline per mouse), or saline (0.1 ml per mouse), was injected s.c. into the right flank of mice when tumor size reached 80 to 100 mg, about 1 week after cell inoculation. Tumor volumes were obtained from daily measurement of the longest and shortest diameters and calculation by the formula, 4/3πr^3 where r=(length+width)/4. At each indicated time, two animals from the control and antisense-treated groups were killed, and tumors were removed and weighed.

CC(=O)O[C@@]12CO[C@@H]1C[C@H](O)[C@@]1(C)C(=O)[C@H](O)C3=C(C)[C@@H](OC(=O)[C@H](O)[C@@H](NC(=O)OC(C)(C)C)c4ccccc4)C[C@@](O)([C@@H](OC(=O)c4ccccc4)[C@H]21)C3(C)C [docetaxel, reference compound]
inhibition at 10 pM ([1]; Homo sapiens, ZR-75-1, docetaxel 0.01 nM alone (Examples 13, 14)): < 12% | inhibition at 10 pM ([1]; Homo sapiens, ZR-75-1, docetaxel 0.01 nM alone (Examples 21, 22)): < 15% | inhibition at 30 pM ([1]; Homo sapiens, ZR-75-1, docetaxel 0.03 nM alone (Examples 21, 22)): ~40% | inhibition at 0.0001 µM ([1]; Homo sapiens, ZR-75-1, docetaxel 0.1 nM alone (Examples 21, 22)): ~72% | inhibition at 0.0003 µM ([1]; Homo sapiens, ZR-75-1, docetaxel 0.3 nM alone (Examples 21, 22)): ~85% | growth inhibition ([1]; docetaxel alone, doses ranging between 0.01 and 0.3 nM, maximum): up to 80%

CC(=O)O[C@H]1C(=O)[C@@]2(C)[C@H]([C@H](OC(=O)c3ccccc3)[C@]3(O)C[C@H](OC(=O)[C@H](O)[C@@H](NC(=O)c4ccccc4)c4ccccc4)C(C)=C1C3(C)C)[C@]1(OC(C)=O)CO[C@@H]1C[C@@H]2O [paclitaxel, reference compound]
tumor growth ([2]; three cycles (taxol 20 mg/kg/dose i.p.; MBO 10 mg/kg/dose p.o.), FIG. 17A): inhibited tumor growth | survival time ([2]; three cycles, FIG. 17B): slight increase in survival time | inhibition at 0.001 µM ([3]; Homo sapiens, paclitaxel 1 nM alone): < 5% | inhibition at 0.005 µM ([3]; Homo sapiens, paclitaxel 5 nM alone): ~20% | inhibition at 0.01 µM ([3]; Homo sapiens, paclitaxel 10 nM alone): ~58% | growth inhibition ([3]; paclitaxel alone, doses ranging between 0.1 and 10 nM, maximum): up to 60% | expression of AR [4]: Unlike taxol, treatment with HYB 165 inhibited the expression of TGF α and AR | inhibition of staining (microvessel count) [5]: over 60% | expression of TGFα [6]: Unlike taxol, treatment with HYB 165 inhibited the expression of TGF α and AR | p27 expression [7]: Unlike taxol, HYB 165 alone is able to increase p27 expression

Oligo 166: Inverted hybrid antisense 18-mer GCG TGC CUC CUC ACT GGC, SEQ ID NO:6 (antisense GCGTGCCUCCUCACTGGC; inverted hybrid: 2'-O-methyl ribonucleotide middle segment, DNA flanks, exact positions not given here)
size of the tumor [8]: smaller from three days after injection onward than the phosphorothioate oligonucleotide 164

Oligo 168: Mismatched hybrid control GCG CGC CTC CTC GCU GGC, SEQ ID NO:5 (GCGCGCCTCCTCGCUGGC; hybrid: 2'-O-methyl ribonucleotide ends, DNA middle, exact positions not given here) [reference compound]
size of the tumor [8]: little ability to keep tumor size at a minimum relative to the hybrid and inverted hybrid oligonucleotides
